Reference: ChEMBL document CHEMBL1201862, “PubChem BioAssay data set” (2004)
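Growth conditions: 96-well plates. Treatment: test compound, 48 hours, 5 concentrations. Analysis: linear interpolation between bracketing concentrations; unreached endpoints set to highest concentration. Here, GI50 denotes the concentration required for 50% inhibition of growth.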 Active and inactive are the calls of the source. No stated cut-off is given here; in the data, active = GI50 up to about 1.1 µM and inactive = higher.

Tests used:
Assay in all cases: growth of human tumour cells (NCI), 48 h
DU-145 = system: DU-145
COLO 205 = system: COLO 205
IGROV-1 = system: IGROV-1
SK-OV-3 = system: SK-OV-3
OVCAR-3 = system: OVCAR-3
SR = system: SR
HT-29 = system: HT-29
OVCAR-5 = system: OVCAR-5
NCI-H460 = system: NCI-H460
RPMI-8226 = system: RPMI-8226
SNB-19 = system: SNB-19
KM12 = system: KM12
MDA-MB-435 = system: MDA-MB-435
SW-620 = system: SW-620
M14 = system: M14
T47D = system: T47D
SK-MEL-5 = system: SK-MEL-5
SF-539 = system: SF-539
NCI/ADR-RES = system: NCI/ADR-RES
TK-10 = system: TK-10

Measured: GI50

CCC(C)NC1=NCC(C)S1 (centres undefined)
inactive: DU-145 > 100 µM | COLO 205 > 100 µM | IGROV-1 > 100 µM | SK-OV-3 > 100 µM | OVCAR-3 > 100 µM | SR > 100 µM | HT-29 > 100 µM | OVCAR-5 > 100 µM | NCI-H460 > 100 µM | RPMI-8226 > 100 µM | SNB-19 > 100 µM | KM12 > 100 µM | MDA-MB-435 > 100 µM | SW-620 > 100 µM | M14 > 100 µM | T47D > 100 µM | SK-MEL-5 > 100 µM | SF-539 > 100 µM

CO/C(=N\N=C(/c1ccccc1)C(F)(F)F)c1ccncc1
inactive: DU-145 44.5 µM | COLO 205 28.7 µM | IGROV-1 63.2 µM | SK-OV-3 46.3 µM | OVCAR-3 37.8 µM | SR 54.6 µM | HT-29 42.8 µM | OVCAR-5 > 100 µM | NCI-H460 35.8 µM | RPMI-8226 27.6 µM | SNB-19 > 100 µM | KM12 43.7 µM | MDA-MB-435 18.8 µM | M14 52.6 µM | NCI/ADR-RES 20.3 µM | T47D 35.2 µM | SK-MEL-5 21.8 µM

ClC1=C(Cc2ccccc2)Cc2ccc3c(c21)CCC3
inactive: DU-145 48.5 µM | COLO 205 13.4 µM | IGROV-1 41.9 µM | SK-OV-3 83.6 µM | OVCAR-3 36.4 µM | SR 18.3 µM | HT-29 22.6 µM | OVCAR-5 61.2 µM | RPMI-8226 29.4 µM | SNB-19 21.5 µM | KM12 18.3 µM | MDA-MB-435 28 µM | SW-620 25.7 µM | TK-10 72.3 µM | M14 > 100 µM | T47D 18.5 µM | SK-MEL-5 20.8 µM | SF-539 74.3 µM

CSc1n[n+](C)cc(N)c1N
inactive: COLO 205 > 100 µM | IGROV-1 > 100 µM | SK-OV-3 > 100 µM | OVCAR-3 > 100 µM | SR > 100 µM | HT-29 > 100 µM | OVCAR-5 > 100 µM | RPMI-8226 > 100 µM | SNB-19 29.9 µM | KM12 > 100 µM | MDA-MB-435 > 100 µM | SW-620 > 100 µM | TK-10 > 100 µM | M14 > 100 µM | NCI/ADR-RES > 100 µM | T47D > 100 µM | SK-MEL-5 > 100 µM | SF-539 > 100 µM

C=CCCCC1CCCNC1=S (centres undefined)
inactive: DU-145 > 100 µM | IGROV-1 > 100 µM | SK-OV-3 > 100 µM | OVCAR-3 > 100 µM | HT-29 > 100 µM | OVCAR-5 > 100 µM | NCI-H460 > 100 µM | RPMI-8226 > 100 µM | SNB-19 > 100 µM | KM12 > 100 µM | MDA-MB-435 > 100 µM | SW-620 > 100 µM | TK-10 > 100 µM | M14 > 100 µM | T47D > 100 µM | SK-MEL-5 > 100 µM | SF-539 > 100 µM

O=C(CC(=O)N1N=C(N2CCCCC2)CC1c1ccccc1)Nc1ccc(Cl)cc1 (centres undefined)
inactive: DU-145 > 100 µM | COLO 205 > 100 µM | IGROV-1 > 100 µM | OVCAR-3 > 100 µM | HT-29 > 100 µM | OVCAR-5 > 100 µM | NCI-H460 > 100 µM | SNB-19 > 100 µM | KM12 > 100 µM | MDA-MB-435 > 100 µM | SW-620 > 100 µM | TK-10 > 100 µM | M14 > 100 µM | NCI/ADR-RES > 100 µM | T47D > 100 µM | SK-MEL-5 > 100 µM

CC1(C)[C@@H](Cn2nnc3c(N)ncnc32)CC[C@@]1(C)CO
inactive: DU-145 > 100 µM | SK-OV-3 > 100 µM | OVCAR-3 > 100 µM | OVCAR-5 > 100 µM | RPMI-8226 > 100 µM | SNB-19 > 100 µM | KM12 > 100 µM | MDA-MB-435 > 100 µM | SW-620 > 100 µM | TK-10 > 100 µM | M14 > 100 µM | NCI/ADR-RES > 100 µM | T47D > 100 µM | SK-MEL-5 55 µM | SF-539 > 100 µM

C=C1C(=O)O[C@H]2C(=O)[C@H](C)CCC[C@@](C)(O)/C=C\C[C@@]3(C)O[C@@H]3C[C@@H]12
inactive: DU-145 14.5 µM | COLO 205 16.2 µM | IGROV-1 20.3 µM | SK-OV-3 > 100 µM | OVCAR-3 11.2 µM | HT-29 14.8 µM | OVCAR-5 1.68 µM | NCI-H460 26.5 µM | RPMI-8226 17 µM | SNB-19 35.8 µM | KM12 22.2 µM | MDA-MB-435 18.5 µM | SW-620 8 µM | TK-10 4.19 µM | M14 11.3 µM | NCI/ADR-RES 39.4 µM | T47D 23.7 µM | SK-MEL-5 15.2 µM | SF-539 19.3 µM

C=C1[C@@](C)([C@@H]2CCCS2)[C@H]2C(C)=C[C@]1(C)n1c(=O)n(-c3ccccc3)c(=O)n12
inactive: DU-145 > 100 µM | COLO 205 > 100 µM | IGROV-1 56.2 µM | SK-OV-3 > 100 µM | OVCAR-3 > 100 µM | HT-29 > 100 µM | OVCAR-5 > 100 µM | NCI-H460 > 100 µM | RPMI-8226 > 100 µM | SNB-19 > 100 µM | KM12 > 100 µM | MDA-MB-435 > 100 µM | SW-620 > 100 µM | TK-10 > 100 µM | M14 > 100 µM | NCI/ADR-RES > 100 µM | T47D > 100 µM | SK-MEL-5 > 100 µM | SF-539 > 100 µM

Cc1sc2nc(-c3cccc([N+](=O)[O-])c3)c(/C=N/N=C(N)N)n2c1C
inactive: DU-145 1.86 µM | COLO 205 1.83 µM | IGROV-1 1.32 µM | SK-OV-3 1.8 µM | OVCAR-3 1.82 µM | SR 1.75 µM | HT-29 1.62 µM | OVCAR-5 1.65 µM | NCI-H460 1.81 µM | RPMI-8226 1.96 µM | SNB-19 1.76 µM | KM12 1.71 µM | MDA-MB-435 1.79 µM | SW-620 1.75 µM | TK-10 1.51 µM | M14 1.6 µM | NCI/ADR-RES 8.13 µM | SK-MEL-5 1.67 µM | SF-539 1.95 µM

N#Cc1c(N)nc(Sc2ccccc2N)c(C#N)c1-c1ccccc1
inactive: DU-145 14.8 µM | COLO 205 35.7 µM | IGROV-1 16.9 µM | SR 21 µM | HT-29 24.5 µM | OVCAR-5 46.3 µM | NCI-H460 14.8 µM | RPMI-8226 12.7 µM | SNB-19 29.4 µM | KM12 17.8 µM | MDA-MB-435 23.6 µM | SW-620 30.9 µM | TK-10 11.5 µM | M14 24.2 µM | NCI/ADR-RES 11.5 µM | SK-MEL-5 19.4 µM | SF-539 26.9 µM

N#CCCN(CCNc1ccccc1)C(=O)Nc1ccc(NC(=O)N(CCC#N)CCNc2ccccc2)cc1
inactive: DU-145 > 92.9 µM | COLO 205 > 100 µM | SK-OV-3 > 65.6 µM | OVCAR-3 > 92.9 µM | HT-29 > 100 µM | OVCAR-5 > 100 µM | NCI-H460 > 67.6 µM | RPMI-8226 > 100 µM | SNB-19 > 100 µM | KM12 > 96.6 µM | MDA-MB-435 > 100 µM | SW-620 > 100 µM | TK-10 > 61.4 µM | M14 > 100 µM | NCI/ADR-RES > 63.8 µM | T47D > 58.1 µM | SK-MEL-5 > 100 µM | SF-539 > 100 µM

CCC(C#N)NCc1cccc(CNC(C#N)CC)c1 (centres undefined)
inactive: DU-145 > 100 µM | COLO 205 > 100 µM | IGROV-1 > 100 µM | SK-OV-3 18.4 µM | OVCAR-3 > 100 µM | HT-29 > 100 µM | OVCAR-5 20 µM | NCI-H460 > 100 µM | SNB-19 > 100 µM | KM12 > 100 µM | MDA-MB-435 > 100 µM | SW-620 > 100 µM | TK-10 > 100 µM | M14 17.6 µM | NCI/ADR-RES > 100 µM | T47D > 100 µM | SK-MEL-5 > 100 µM | SF-539 > 100 µM

COC(=O)c1cc(OS(=O)(=O)C(F)(F)F)c(=O)n2c1CCCC2
inactive: DU-145 > 100 µM | COLO 205 > 100 µM | IGROV-1 > 100 µM | SK-OV-3 > 100 µM | HT-29 > 100 µM | OVCAR-5 > 100 µM | SNB-19 > 100 µM | KM12 > 100 µM | MDA-MB-435 > 100 µM | SW-620 > 100 µM | TK-10 > 100 µM | M14 > 100 µM | NCI/ADR-RES > 100 µM | T47D > 100 µM | SK-MEL-5 > 100 µM | SF-539 > 100 µM

CC[N+](CC)(CC)/C(=N\S(=O)(=O)c1ccc(Cl)cc1)[N-]S(=O)(=O)c1cc(C)c(Cl)cc1S
inactive: DU-145 97.3 µM | IGROV-1 > 100 µM | SK-OV-3 62.8 µM | OVCAR-3 83 µM | HT-29 41.7 µM | OVCAR-5 58.2 µM | NCI-H460 41 µM | RPMI-8226 47.3 µM | KM12 > 100 µM | MDA-MB-435 > 100 µM | SW-620 70.3 µM | TK-10 58.7 µM | M14 39.3 µM | NCI/ADR-RES > 100 µM | T47D > 100 µM | SK-MEL-5 > 100 µM | SF-539 57.3 µM

Cc1ccc(/N=N/c2c(O)ccc3cc(S(=O)(=O)O)ccc23)cc1
inactive: DU-145 > 100 µM | COLO 205 73.5 µM | IGROV-1 64.3 µM | SK-OV-3 > 100 µM | OVCAR-3 > 100 µM | HT-29 > 100 µM | OVCAR-5 > 100 µM | RPMI-8226 > 100 µM | SNB-19 > 100 µM | KM12 74.6 µM | MDA-MB-435 > 100 µM | SW-620 > 100 µM | TK-10 > 100 µM | M14 > 100 µM | NCI/ADR-RES > 100 µM | T47D 66.8 µM | SK-MEL-5 > 100 µM
